Measured values taken from article PMC5097697 (Analytical biochemistry, 2016).

System: Sinapis alba myrosinase
Test: HPLC progress curves
Format: biochemical
Conditions: pH 7.4, 37 °C; pooled wavelength data (220, 227, 235, 241 nm); myrosinase 8.83 U/ml

Km: 798 ± 71 µM
SMILES: O=S(=O)(O)O/N=C(/CC(c1ccccc1)c1ccccc1)S[C@@H]1O[C@H](CO)[C@@H](O)[C@H](O)[C@H]1O [compound 5, 2,2-Diphenylethyl glucosinolate]
